# Data from BindingDB's records for doi:10.1016/j.bioorg.2014.08.007 (Central University of Punjab, 2014).
# Target: Xanthine dehydrogenase/oxidase (Bos taurus, UniProt P80457)
# Test: XO inhibitory assay
# Settings: pH 7.5; 25 °C
# Experimental: The reaction mixture contained 1.5 mL of 50 mM potassium phosphate buffer (pH 7.5), 1 mL test sample solutions (5, 10, 25, 50, and 100 µM) was dissolved in DMSO, 0.5 mL of XO enzyme solution (0.2 units/mL of xanthine oxidase in phosphate buffer). The reaction mixture was pre-incubated at room temperature for 15 min, followed by the addition of 1 mL of substrate solution (0.10 mM of xanthine). The mixture was further incubated at room temperature for 30 min and stopped with the addition of 1 mL of 1 M HCl.
# Chain of Xanthine dehydrogenase/oxidase (P80457 whole entry): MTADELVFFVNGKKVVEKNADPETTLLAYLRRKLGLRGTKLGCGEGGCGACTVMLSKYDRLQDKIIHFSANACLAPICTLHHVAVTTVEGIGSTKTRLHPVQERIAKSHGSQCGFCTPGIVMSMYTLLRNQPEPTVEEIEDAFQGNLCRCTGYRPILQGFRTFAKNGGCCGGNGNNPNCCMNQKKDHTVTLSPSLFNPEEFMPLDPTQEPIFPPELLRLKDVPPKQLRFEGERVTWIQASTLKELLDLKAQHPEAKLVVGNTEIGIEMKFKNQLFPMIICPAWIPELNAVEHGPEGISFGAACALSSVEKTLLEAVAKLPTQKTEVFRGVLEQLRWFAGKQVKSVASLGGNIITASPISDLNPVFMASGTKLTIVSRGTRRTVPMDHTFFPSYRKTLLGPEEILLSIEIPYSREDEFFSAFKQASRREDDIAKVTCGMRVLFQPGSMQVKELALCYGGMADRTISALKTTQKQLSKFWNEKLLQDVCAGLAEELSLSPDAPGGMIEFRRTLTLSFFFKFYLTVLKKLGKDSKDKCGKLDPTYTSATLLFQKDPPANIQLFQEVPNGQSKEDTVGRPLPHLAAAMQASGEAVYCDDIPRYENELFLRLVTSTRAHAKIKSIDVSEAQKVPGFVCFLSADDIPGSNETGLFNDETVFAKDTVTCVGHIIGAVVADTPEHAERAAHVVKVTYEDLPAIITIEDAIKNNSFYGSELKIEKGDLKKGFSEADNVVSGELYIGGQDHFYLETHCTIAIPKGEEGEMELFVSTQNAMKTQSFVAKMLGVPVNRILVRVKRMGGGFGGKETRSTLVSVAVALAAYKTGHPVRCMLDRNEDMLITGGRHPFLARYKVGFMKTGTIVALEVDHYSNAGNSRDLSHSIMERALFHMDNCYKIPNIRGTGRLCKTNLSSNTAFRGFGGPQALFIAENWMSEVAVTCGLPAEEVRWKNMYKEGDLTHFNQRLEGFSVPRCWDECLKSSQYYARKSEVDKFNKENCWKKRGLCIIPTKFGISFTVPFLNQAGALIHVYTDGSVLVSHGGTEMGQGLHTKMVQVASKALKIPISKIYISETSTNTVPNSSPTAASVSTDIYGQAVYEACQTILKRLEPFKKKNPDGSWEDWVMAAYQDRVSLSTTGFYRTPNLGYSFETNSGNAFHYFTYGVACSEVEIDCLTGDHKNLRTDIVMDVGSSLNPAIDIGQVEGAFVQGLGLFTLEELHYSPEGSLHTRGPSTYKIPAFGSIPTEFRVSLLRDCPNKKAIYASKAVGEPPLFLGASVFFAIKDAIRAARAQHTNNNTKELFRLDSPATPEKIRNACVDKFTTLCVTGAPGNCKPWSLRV
row,IC50,SMILES
1,41.7 µM,Nc1ccccc1-c1cc(-c2ccccc2)n[nH]1
2,11 µM,"Oc1c(Cl)cc(Cl)cc1C1Nc2ccccc2-c2cc(-c3ccccc3)nn21 (centres undefined) [2,4‐dichloro‐6‐{2‐phenyl‐5H,6H‐pyrazolo[1,5‐ c]quinazolin‐5‐yl}phenol (6g)]"
3,43.6 µM,"COc1ccc(C2Nc3ccccc3-c3cc(-c4ccccc4)nn32)cc1OC (centres undefined) [5‐(3,4‐dimethoxyphenyl)‐2‐phenyl‐5H,6H‐ pyrazolo[1,5‐c]quinazoline (6e)]"
4,20.9 µM,"O=[N+]([O-])c1cccc(C2Nc3ccccc3-c3cc(-c4ccccc4)nn32)c1 (centres undefined) [5‐(3‐nitrophenyl)‐2‐phenyl‐5H,6H‐pyrazolo[1,5‐ c]quinazoline (6h)]"
